According to patent US10093630B2, “Pyrazole compounds and methods of making and using same” (ABIDE THERAPEUTICS, INC., priority 2014, dated 2018):

Columns and labels:
Assay in all cases: In vitro competitive activity-based protein profiling (gel-based, FP-Rh or HT-01 probe)
Assay type in all cases: biochemical
FAAH = target: T1, FAAH (Mus musculus, UniProt O08914); conditions: for inhibition at 1 µM: 1 μM inhibitor, read-out: % Inhibition at 1 μM, B = FAAH; for inhibition at 10 µM: 10 μM inhibitor, read-out: % Inhibition at 10 μM, B = FAAH
T1 construct: Proteomes (mouse brain membrane fraction or cell lysates); from tissue; host or cells: mouse brain membrane fraction (or cell lysates, not specified)
T1 sequence (O08914 1-579): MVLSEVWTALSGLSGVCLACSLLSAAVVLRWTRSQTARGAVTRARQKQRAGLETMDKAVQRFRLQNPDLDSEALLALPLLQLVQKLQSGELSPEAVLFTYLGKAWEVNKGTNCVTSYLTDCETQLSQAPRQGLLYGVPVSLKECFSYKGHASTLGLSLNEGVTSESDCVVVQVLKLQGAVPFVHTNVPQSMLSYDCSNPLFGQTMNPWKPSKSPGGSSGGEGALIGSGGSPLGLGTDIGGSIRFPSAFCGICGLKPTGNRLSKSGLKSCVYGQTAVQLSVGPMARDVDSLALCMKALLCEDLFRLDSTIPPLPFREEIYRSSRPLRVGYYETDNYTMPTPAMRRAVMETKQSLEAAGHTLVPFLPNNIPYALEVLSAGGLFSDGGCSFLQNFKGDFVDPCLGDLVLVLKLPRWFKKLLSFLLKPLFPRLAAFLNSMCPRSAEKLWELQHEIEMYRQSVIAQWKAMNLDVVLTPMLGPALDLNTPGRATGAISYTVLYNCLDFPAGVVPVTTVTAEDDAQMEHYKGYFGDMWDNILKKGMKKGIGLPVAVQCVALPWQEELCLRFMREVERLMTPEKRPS
In short: (§1)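 Mouse brain membrane proteome or cell lysate (1.0 mg/mL protein) was preincubated with inhibitor at varying concentrations for 30 min at 37° C, then labelled with FP-Rh or HT-01 for 30 min at 37° C. After SDS-PAGE, residual hydrolase activity was quantified as in-gel fluorescence of each band.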

PLA2G7 = target: T2, PLA2G7 (Mus musculus, UniProt Q60963); conditions: for inhibition at 1 µM: 1 μM inhibitor, read-out: % Inhibition at 1 μM, D = PLA2G7; for inhibition at 10 µM: 10 μM inhibitor, read-out: % Inhibition at 10 μM, D = PLA2G7
T2 construct: Proteomes (mouse brain membrane fraction or cell lysates); from tissue; host or cells: mouse brain membrane fraction (or cell lysates, not specified)
T2 sequence (Q60963 22-440): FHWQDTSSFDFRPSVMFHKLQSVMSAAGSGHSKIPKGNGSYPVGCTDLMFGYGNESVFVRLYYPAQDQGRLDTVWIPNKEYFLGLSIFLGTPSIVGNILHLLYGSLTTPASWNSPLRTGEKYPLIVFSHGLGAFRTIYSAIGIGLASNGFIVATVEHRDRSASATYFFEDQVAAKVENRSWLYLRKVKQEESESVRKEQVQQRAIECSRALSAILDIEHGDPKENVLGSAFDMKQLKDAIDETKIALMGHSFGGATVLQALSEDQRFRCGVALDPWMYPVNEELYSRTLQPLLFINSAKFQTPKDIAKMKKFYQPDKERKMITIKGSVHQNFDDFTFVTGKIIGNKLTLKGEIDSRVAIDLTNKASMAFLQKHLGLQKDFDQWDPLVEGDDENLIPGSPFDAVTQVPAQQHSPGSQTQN
In short: as §1

ABHD6 = target: T3, ABHD6 (Mus musculus, UniProt Q8R2Y0); conditions: for inhibition at 1 µM: 1 μM inhibitor, read-out: % Inhibition at 1 μM, C = ABHD6; for inhibition at 10 µM: 10 μM inhibitor, read-out: % Inhibition at 10 μM, C = ABHD6
T3 construct: Proteomes (mouse brain membrane fraction or cell lysates); from tissue; host or cells: mouse brain membrane fraction (or cell lysates, not specified)
T3 sequence (Q8R2Y0 1-336): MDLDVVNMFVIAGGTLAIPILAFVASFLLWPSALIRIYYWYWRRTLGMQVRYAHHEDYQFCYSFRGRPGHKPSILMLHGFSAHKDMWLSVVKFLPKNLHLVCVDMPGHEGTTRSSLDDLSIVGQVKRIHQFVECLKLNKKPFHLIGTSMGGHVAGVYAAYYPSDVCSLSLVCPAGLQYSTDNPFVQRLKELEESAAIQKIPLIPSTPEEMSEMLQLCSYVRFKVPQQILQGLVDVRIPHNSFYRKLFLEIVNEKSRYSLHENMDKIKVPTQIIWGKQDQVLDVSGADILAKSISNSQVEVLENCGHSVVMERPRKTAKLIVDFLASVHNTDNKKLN
In short: as §1

MAGL = target: T4, MAGL (Mus musculus, UniProt O35678); conditions: for inhibition at 1 µM: 1 μM inhibitor; for inhibition at 10 µM: 10 μM inhibitor
T4 construct: Proteomes (mouse brain membrane fraction or cell lysates); from tissue; host or cells: mouse brain membrane fraction (or cell lysates, not specified)
T4 sequence (O35678 1-303): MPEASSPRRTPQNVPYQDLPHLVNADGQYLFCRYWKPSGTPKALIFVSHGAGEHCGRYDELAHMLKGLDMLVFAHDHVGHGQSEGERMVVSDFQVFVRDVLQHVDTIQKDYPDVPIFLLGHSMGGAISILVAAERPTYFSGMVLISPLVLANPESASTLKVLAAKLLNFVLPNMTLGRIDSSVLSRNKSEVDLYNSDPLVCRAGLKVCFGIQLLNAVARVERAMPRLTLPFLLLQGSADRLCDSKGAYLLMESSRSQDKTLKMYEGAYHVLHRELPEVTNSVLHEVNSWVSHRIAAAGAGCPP
In short: as §1

CN(CCN(C)C(=O)n1cc(C(F)(F)F)cn1)C(=O)c1ccccc1 [Example 160, N-methyl-N-(2-(N-methylbenzamido)ethyl)-4-(trifluoromethyl)-1H-pyrazole-1-carboxamide]
> 75%: inhibition at 1 µM (FAAH) | inhibition at 10 µM (FAAH) | inhibition at 1 µM (PLA2G7) | inhibition at 10 µM (PLA2G7) | inhibition at 10 µM (ABHD6) | inhibition at 10 µM (MAGL)
< 25%: inhibition at 1 µM (ABHD6) | inhibition at 1 µM (MAGL)

CC(=O)N1CCN(C(=O)n2cc(C)cn2)CC1 [Example 161, 1-(4-(4-Methyl-1H-pyrazole-1-carbonyl)piperazin-1-yl)ethanone]
< 25%: inhibition at 1 µM (FAAH) | inhibition at 10 µM (FAAH) | inhibition at 1 µM (PLA2G7) | inhibition at 1 µM (ABHD6) | inhibition at 10 µM (ABHD6) | inhibition at 1 µM (MAGL) | inhibition at 10 µM (MAGL)
> 75%: inhibition at 10 µM (PLA2G7)

Cc1cnn(C(=O)N2CCN(S(C)(=O)=O)CC2)c1 [Example 162, (4-Methyl-1H-pyrazol-1-yl)(4-(methylsulfonyl)piperazin-1-yl)methanone]
> 75%: inhibition at 10 µM (PLA2G7)
< 25%: inhibition at 1 µM (FAAH) | inhibition at 10 µM (FAAH) | inhibition at 1 µM (PLA2G7) | inhibition at 1 µM (ABHD6) | inhibition at 1 µM (MAGL) | inhibition at 10 µM (MAGL)
25 to 75%: inhibition at 10 µM (ABHD6)

Cc1cnn(C(=O)N2CCN(C)CC2)c1 [Example 163, (4-Methyl-1H-pyrazol-1-yl)(4-methylpiperazin-1-yl)methanone]
< 25%: inhibition at 1 µM (FAAH) | inhibition at 10 µM (FAAH) | inhibition at 1 µM (PLA2G7) | inhibition at 10 µM (PLA2G7) | inhibition at 1 µM (ABHD6) | inhibition at 1 µM (MAGL) | inhibition at 10 µM (MAGL)
25 to 75%: inhibition at 10 µM (ABHD6)

Cc1cnn(C(=O)N2CCN(C(=O)c3ccccc3)CC2)c1 [Example 164, (4-Benzoylpiperazin-1-yl)(4-methyl-1H-pyrazol-1-yl)methanone]
< 25%: inhibition at 1 µM (FAAH) | inhibition at 10 µM (FAAH) | inhibition at 1 µM (PLA2G7) | inhibition at 1 µM (ABHD6) | inhibition at 10 µM (ABHD6) | inhibition at 1 µM (MAGL)
> 75%: inhibition at 10 µM (PLA2G7)
25 to 75%: inhibition at 10 µM (MAGL)

CC(=O)N1CCCN(C(=O)n2cc(C)cn2)CC1 [Example 165, 1-(4-(4-Methyl-1H-pyrazole-1-carbonyl)-1,4-diazepan-1-yl)ethanone]
< 25%: inhibition at 10 µM (PLA2G7) | inhibition at 10 µM (ABHD6) | inhibition at 10 µM (MAGL)
25 to 75%: inhibition at 10 µM (FAAH)

Cc1cnn(C(=O)N2CCCN(S(C)(=O)=O)CC2)c1 [Example 166, (4-Methyl-1H-pyrazol-1-yl)(4-(methylsulfonyl)-1,4-diazepan-1-yl)methanone]
< 25%: inhibition at 10 µM (FAAH) | inhibition at 10 µM (PLA2G7) | inhibition at 10 µM (ABHD6) | inhibition at 10 µM (MAGL)

Cc1cnn(C(=O)N2CCCN(C)CC2)c1 [Example 167, (4-Methyl-1,4-diazepan-1-yl)(4-methyl-1H-pyrazol-1-yl)methanone]
< 25%: inhibition at 10 µM (FAAH) | inhibition at 10 µM (PLA2G7) | inhibition at 10 µM (ABHD6) | inhibition at 10 µM (MAGL)

Cc1cnn(C(=O)N2CCCN(Cc3ccccc3)CC2)c1 [Example 168, (4-Benzyl-1,4-diazepan-1-yl)(4-methyl-1H-pyrazol-1-yl)methanone]
< 25%: inhibition at 10 µM (FAAH) | inhibition at 10 µM (PLA2G7) | inhibition at 10 µM (ABHD6) | inhibition at 10 µM (MAGL)

Cc1cnn(C(=O)N2CCCN(C(=O)c3ccccc3)CC2)c1 [Example 169, (4-Benzoyl-1,4-diazepan-1-yl)(4-methyl-1H-pyrazol-1-yl)methanone]
< 25%: inhibition at 10 µM (FAAH) | inhibition at 10 µM (PLA2G7)
25 to 75%: inhibition at 10 µM (ABHD6) | inhibition at 10 µM (MAGL)

CC(=O)N(C)CCN(C)C(=O)n1cc(C)cn1 [Example 170, N,4-Dimethyl-N-(2-(N-methylacetamido)ethyl)-1H-pyrazole-1-carboxamide]
< 25%: inhibition at 10 µM (FAAH) | inhibition at 10 µM (PLA2G7) | inhibition at 10 µM (ABHD6) | inhibition at 10 µM (MAGL)

Cc1cnn(C(=O)N(C)CCN(C)Cc2ccccc2)c1 [Example 171, N-(2-(Benzyl(methyl)amino)ethyl)-N,4-dimethyl-1H-pyrazole-1-carboxamide]
< 25%: inhibition at 10 µM (FAAH) | inhibition at 10 µM (PLA2G7) | inhibition at 10 µM (ABHD6) | inhibition at 10 µM (MAGL)

Cc1cnn(C(=O)N(C)CCN(C)C(=O)c2ccccc2)c1 [Example 172, N,4-Dimethyl-N-(2-(N-methylbenzamido)ethyl)-1H-pyrazole-1-carboxamide]
< 25%: inhibition at 10 µM (FAAH) | inhibition at 10 µM (PLA2G7) | inhibition at 10 µM (ABHD6) | inhibition at 10 µM (MAGL)

CC(=O)N1CCN(C(=O)n2cc(C#N)cn2)CC1 [Example 173, 1-(4-Acetylpiperazine-1-carbonyl)-1H-pyrazole-4-carbonitrile]
< 25%: inhibition at 1 µM (FAAH) | inhibition at 10 µM (FAAH) | inhibition at 1 µM (ABHD6) | inhibition at 1 µM (MAGL)
25 to 75%: inhibition at 10 µM (ABHD6) | inhibition at 10 µM (MAGL)
> 75%: inhibition at 1 µM (PLA2G7) | inhibition at 10 µM (PLA2G7)

CS(=O)(=O)N1CCN(C(=O)n2cc(C#N)cn2)CC1 [Example 174, 1-(4-(Methylsulfonyl)piperazine-1-carbonyl)-1H-pyrazole-4-carbonitrile]
< 25%: inhibition at 1 µM (FAAH) | inhibition at 1 µM (MAGL)
25 to 75%: inhibition at 10 µM (FAAH) | inhibition at 10 µM (MAGL)
> 75%: inhibition at 1 µM (PLA2G7) | inhibition at 10 µM (PLA2G7) | inhibition at 1 µM (ABHD6) | inhibition at 10 µM (ABHD6)

CN1CCN(C(=O)n2cc(C#N)cn2)CC1 [Example 175, 1-(4-Methylpiperazine-1-carbonyl)-1H-pyrazole-4-carbonitrile]
< 25%: inhibition at 1 µM (PLA2G7)
> 75%: inhibition at 10 µM (FAAH) | inhibition at 10 µM (PLA2G7) | inhibition at 1 µM (ABHD6) | inhibition at 10 µM (ABHD6) | inhibition at 10 µM (MAGL)
25 to 75%: inhibition at 1 µM (FAAH) | inhibition at 1 µM (MAGL)

N#Cc1cnn(C(=O)N2CCN(C(=O)c3ccccc3)CC2)c1 [Example 176, 1-(4-Benzoylpiperazine-1-carbonyl)-1H-pyrazole-4-carbonitrile]
25 to 75%: inhibition at 10 µM (FAAH)
< 25%: inhibition at 1 µM (FAAH) | inhibition at 1 µM (ABHD6)
> 75%: inhibition at 1 µM (PLA2G7) | inhibition at 10 µM (PLA2G7) | inhibition at 10 µM (ABHD6) | inhibition at 1 µM (MAGL) | inhibition at 10 µM (MAGL)

CC(=O)N1CCCN(C(=O)n2cc(C#N)cn2)CC1 [Example 177, 1-(4-Acetyl-1,4-diazepane-1-carbonyl)-1H-pyrazole-4-carbonitrile]
< 25%: inhibition at 1 µM (FAAH) | inhibition at 1 µM (PLA2G7) | inhibition at 1 µM (ABHD6) | inhibition at 1 µM (MAGL) | inhibition at 10 µM (MAGL)
> 75%: inhibition at 10 µM (FAAH) | inhibition at 10 µM (PLA2G7) | inhibition at 10 µM (ABHD6)
